From patent US10221177B2 (HYDRA BIOSCIENCES, INC., priority 2014, dated 2019)
“And” between values parts separate entries of the source, which are not always exact repeats. Identical values can stand only once.

Columns and labels:
human TRPA1 = human TRPA1 (Homo sapiens (Human), UniProt O75762); assay: In vitro inhibition of human TRPA1, whole cell patch configuration; format: cell-based; details: current activation 10 μM AITC, tested concentrations 320 pM to 3.2 μM, read-out: hTRPA1 IC50
Procedure, shortened: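 Whole-cell patch clamp, bath 150 mM NaCl, 10 mM HEPES, 1 mM EGTA, 3 mM MgCl2, pH 7.4 (sometimes 2 mM CaCl2, 1 mM MgCl2). Currents recorded continuously at −60 mV or by 400 ms ramps from −40 mV holding every 4 s; inward/outward currents taken at −80/80 mV, with controlled-temperature focal perfusion.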

[1] = system: CFA-induced cold hypersensitivity of the hind paw; assay: CFA-induced pain test, cold hypersensitivity (cold plate paw withdrawal latency); format: in vivo; details: cold plate 1° C.; for Average PWL Post-Treatment / PWL Change: 1-2 hour pre-treatment; for Average PWL Post-CFA: baseline before dosing
Method: Embodiments of the invention may be efficacious in the treatment of inflammatory pain. Compounds of the invention were tested by the CFA-induced pain test method. Compounds were formulated as solutions in water with various solvents and excipients including dimethyl sulfoxide (DMSO), polyethylene glycol (15)-hydroxystearate (Solutol®, Sigma-Aldrich), caprylocaproyl macrogol-8 glyceride (Labrasol®, Sigma-Aldrich), polysorbate-80 (Tween®-80, Sigma-Aldrich), and polyoxyl 35 castor oil (Cremophor® EL, BASF Corp.); or suspensions in methylcellulose as indicated in Table 3 for oral delivery. Briefly, the hind paw was sensitized to cold temperature (allodynic) by administering 0.1 mL of Complete Freund's Adjuvant (CFA) to the right hind paw. Three days later, the time taken for the animal to lift its CFA-injected paw was recorded compared to its un-injected normal left hind paw. […] To avoid tissue damage the maximum cut-off time was 5 minutes. Animals that were allodynic (average PWL to the first three pain behaviors <150 seconds for the CFA-injected hind paw: ˜≥50% difference between the normal and CFA-injected paw) were included in the study and subsequently randomized across treatment groups. The following day, the animals were dosed orally under blinded conditions. Following the 1-2 hour pre-treatment time, the post-dose PWL readings were again taken. The efficacy of the drug treatment was assessed by comparing the PWL in the drug treatment animals to those animals that receive the vehicle. P values, when indicated, indicate significance compared Vehicle.

[2] = system: formalin-induced pain behaviors in the rat; assay: Formalin-induced pain test (formalin model), duration of pain behaviors; format: in vivo
Method: Exemplary compounds of the invention were tested in the formalin-induced pain test reported by Dubuisson et al., Pain 1977 December; 4(2):161-74 (incorporated herein by reference in its entirety). Briefly, dilute formalin (50 μL of 3% formalin) was injected into the plantar surface of the hind paw of a rat. […] The individual responsible for counting the pain behaviors in a particular study was blinded to the treatment groups.
The initial phase (Phase I: 0-5 min) is thought to have a significant component that is dependent upon direct activation of afferent fibers by formalin and functional TRPA1 (McNamara et al., 2007).
Investigators studied oral administration of compounds of the invention at the doses presented in Table 3 on pain behaviors in the formalin model in the rat. Compounds were formulated as solutions in water with various solvents and excipients including dimethyl sulfoxide (DMSO), polyethylene glycol (15)-hydroxystearate (Solutol®, Sigma-Aldrich), caprylocaproyl macrogol-8 glyceride (Labrasol®, Sigma-Aldrich), polysorbate-80 (Tween®-80, Sigma-Aldrich), and polyoxyl 35 castor oil (Cremophor® EL, BASF Corp.); or suspensions in methylcellulose as indicated in Table 3. Animals were dosed orally with the vehicle, or compounds of the invention one hour prior to intraplantar formalin. […] A decrease over Vehicle indicates a positive result. P values, when indicated, indicate significance compared Vehicle.

[3] = 0.3 mg/kg PO, solution in 4% DMSO, 5% Tween-80, 20% Cremophor EL, and 71% water
[4] = 0.3 mg/kg PO, suspension in 0.5% methylcellulose
[5] = 1 mg/kg PO, solution in 4% DMSO, 5% Tween-80, 20% Cremophor EL, and 71% water
[6] = 1 mg/kg PO, suspension in 0.5% methylcellulose
[7] = 3 mg/kg PO, solution in 4% DMSO, 5% Tween-80, 20% Cremophor EL, and 71% water
[8] = 3 mg/kg PO, suspension in 0.5% methylcellulose
[9] = group 0.3 mg/kg PO, solution in 4% DMSO, 5% Tween-80, 20% Cremophor EL, and 71% water
[10] = group 1 mg/kg PO, solution in 4% DMSO, 5% Tween-80, 20% Cremophor EL, and 71% water
[11] = group 3 mg/kg PO, solution in 4% DMSO, 5% Tween-80, 20% Cremophor EL, and 71% water
[12] = 1 mg/kg PO one hour prior to formalin, solution in 4% DMSO, 5% Tween-80, 20% Cremophor EL, 71% water
[13] = 1 mg/kg PO one hour prior to formalin, suspension in 0.5% methylcellulose
[14] = 3 mg/kg PO one hour prior to formalin, solution in 4% DMSO, 5% Tween-80, 20% Cremophor EL, 71% water
[15] = 3 mg/kg PO one hour prior to formalin, suspension in 0.5% methylcellulose
[16] = 10 mg/kg PO one hour prior to formalin, solution in 4% DMSO, 5% Tween-80, 20% Cremophor EL, 71% water
[17] = 10 mg/kg PO one hour prior to formalin, suspension in 0.5% methylcellulose
[18] = 30 mg/kg PO one hour prior to formalin, suspension in 0.5% methylcellulose

human TRPA1, sequence (O75762 whole entry, the tested form may be a part): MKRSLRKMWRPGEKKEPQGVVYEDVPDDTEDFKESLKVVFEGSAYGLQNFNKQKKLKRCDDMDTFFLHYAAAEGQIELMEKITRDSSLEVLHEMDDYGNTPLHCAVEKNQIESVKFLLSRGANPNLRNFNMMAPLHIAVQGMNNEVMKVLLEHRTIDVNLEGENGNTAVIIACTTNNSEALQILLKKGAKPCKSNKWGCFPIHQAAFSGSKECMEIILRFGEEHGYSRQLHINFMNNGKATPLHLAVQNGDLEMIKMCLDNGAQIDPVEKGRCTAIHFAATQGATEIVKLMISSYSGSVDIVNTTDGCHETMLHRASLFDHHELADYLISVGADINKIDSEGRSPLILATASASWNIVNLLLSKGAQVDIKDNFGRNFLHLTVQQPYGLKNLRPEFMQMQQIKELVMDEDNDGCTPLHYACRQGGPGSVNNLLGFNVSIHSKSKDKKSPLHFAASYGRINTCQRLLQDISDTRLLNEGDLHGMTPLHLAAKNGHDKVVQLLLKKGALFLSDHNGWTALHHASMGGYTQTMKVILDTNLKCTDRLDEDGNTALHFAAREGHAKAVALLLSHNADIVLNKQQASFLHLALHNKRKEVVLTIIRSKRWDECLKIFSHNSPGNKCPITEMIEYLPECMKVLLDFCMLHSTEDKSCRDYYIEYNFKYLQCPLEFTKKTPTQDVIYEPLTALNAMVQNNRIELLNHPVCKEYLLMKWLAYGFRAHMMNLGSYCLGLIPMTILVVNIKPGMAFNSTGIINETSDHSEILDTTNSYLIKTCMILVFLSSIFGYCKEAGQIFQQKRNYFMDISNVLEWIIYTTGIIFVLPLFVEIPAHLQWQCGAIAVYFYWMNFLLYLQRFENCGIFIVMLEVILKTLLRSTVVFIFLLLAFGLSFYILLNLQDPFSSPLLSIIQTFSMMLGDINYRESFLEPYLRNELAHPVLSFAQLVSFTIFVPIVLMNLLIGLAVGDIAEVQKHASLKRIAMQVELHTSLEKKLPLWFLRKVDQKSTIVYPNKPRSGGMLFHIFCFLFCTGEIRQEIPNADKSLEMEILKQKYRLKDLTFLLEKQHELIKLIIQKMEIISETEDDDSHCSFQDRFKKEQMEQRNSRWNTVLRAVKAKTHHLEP

Cc1cc(Cn2c(=O)c3c(ncn3[C@@H](C)C(=O)Nc3cncc(-c4cnc(C(F)(F)F)nc4)n3)n(C)c2=O)no1 [Compound 21, (S)-2-(3-methyl-1-((5-methylisoxazol-3-yl)methyl)-2,6-dioxo-2,3-dihydro-1H-purin-7(6H)-yl)-N-(6-(2-(trifluoromethyl)pyrimidin-5-yl)pyrazin-2-yl)propanamide]
IC50 (human TRPA1): 19 nM | Average PWL Post-Treatment [1, 3]: 159.2 | PWL Change [1, 3]: 49.6 s | Average PWL Post-Treatment [1, 4]: 106.4 | PWL Change [1, 4]: 11.9 s | Average PWL Post-Treatment [1, 5]: 208.5 | PWL Change [1, 5]: 94.2 s | Average PWL Post-Treatment [1, 6]: 155.2 | PWL Change [1, 6]: 59.8 s | Average PWL Post-Treatment [1, 7]: 258.9 | PWL Change [1, 7]: 148.8 s | Average PWL Post-Treatment [1, 8]: 236.7 | PWL Change [1, 8]: 142.4 s | Average PWL Post-CFA [1, 9]: 109.6 | Average PWL Post-CFA ([1]; group 0.3 mg/kg PO, suspension in 0.5% methylcellulose): 94.5 | Average PWL Post-CFA [1, 10]: 114.3 | Average PWL Post-CFA ([1]; group 1 mg/kg PO, suspension in 0.5% methylcellulose): 95.4 | Average PWL Post-CFA [1, 11]: 110.1 | Average PWL Post-CFA ([1]; group 3 mg/kg PO, suspension in 0.5% methylcellulose): 94.3 | Duration (0-2 Minutes) Average [2, 12]: 99.6 s | Duration (0-5 Minutes) Average [2, 12]: 206.9 s | Duration (0-2 Minutes) Average [2, 13]: 80.5 s | Duration (0-5 Minutes) Average [2, 13]: 202.5 s | Duration (0-2 Minutes) Average [2, 14]: 97.5 s | Duration (0-5 Minutes) Average [2, 14]: 186.9 s | Duration (0-2 Minutes) Average [2, 15]: 86.5 s | Duration (0-5 Minutes) Average [2, 15]: 190.1 s | Duration (0-2 Minutes) Average [2, 16]: 71.8 s | Duration (0-5 Minutes) Average [2, 16]: 116.5 s | Duration (0-2 Minutes) Average [2, 17]: 78.0 s and 92.3 s | Duration (0-5 Minutes) Average [2, 17]: 202.8 s and 163.1 s | Duration (0-2 Minutes) Average [2, 18]: 100.5 s | Duration (0-5 Minutes) Average [2, 18]: 165.4 s

CC(=O)Cn1c(=O)c2c(ncn2[C@@H](C)C(=O)Nc2cccc(-c3cnc(N4CC5C(C4)C5(F)F)nc3)n2)n(C)c1=O (stereo partly drawn) [Compound 25, (2S)—N-(6-(2-(6,6-difluoro-3-azabicyclo[3.1.0]hexan-3-yl)pyrimidin-5-yl)pyridin-2-yl)-2-(3-methyl-2,6-dioxo-1-(2-oxopropyl)-2,3-dihydro-1H-purin-7(6H)-yl)propanamide]
IC50 (human TRPA1): 4 nM | Average PWL Post-Treatment [1, 3]: 170.2 | PWL Change [1, 3]: 65.2 s | Average PWL Post-Treatment [1, 5]: 224.8 | PWL Change [1, 5]: 119.7 s | Average PWL Post-Treatment [1, 7]: 259.9 | PWL Change [1, 7]: 154.9 s | Average PWL Post-CFA [1, 9]: 105.0 | Average PWL Post-CFA [1, 10]: 105.1 | Average PWL Post-CFA [1, 11]: 105.1 | Duration (0-2 Minutes) Average [2, 12]: 87.8 s | Duration (0-5 Minutes) Average [2, 12]: 190.1 s | Duration (0-2 Minutes) Average [2, 14]: 22.8 s | Duration (0-5 Minutes) Average [2, 14]: 98.3 s | Duration (0-2 Minutes) Average [2, 16]: 29.1 s | Duration (0-5 Minutes) Average [2, 16]: 146.0 s

C[C@@H](C(=O)Nc1csc(-c2cnc(N3CC4CC4C3)nc2)n1)n1cnc2c1c(=O)n(CC#N)c(=O)n2C (stereo partly drawn) [Compound 34, (2S)—N-(2-(2-(3-azabicyclo[3.1.0]hexan-3-yl)pyrimidin-5-yl)thiazol-4-yl)-2-(1-(cyanomethyl)-3-methyl-2,6-dioxo-2,3-dihydro-1H-purin-7(6H)-yl)propanamide]
IC50 (human TRPA1): 1 nM | Average PWL Post-Treatment [1, 3]: 185.6 | PWL Change [1, 3]: 80.7 s | Average PWL Post-Treatment [1, 5]: 205.4 | PWL Change [1, 5]: 107.4 s | Average PWL Post-Treatment [1, 7]: 272.6 | PWL Change [1, 7]: 169.0 s | Average PWL Post-CFA [1, 9]: 104.9 | Average PWL Post-CFA [1, 10]: 98.0 | Average PWL Post-CFA [1, 11]: 103.6 | Duration (0-2 Minutes) Average [2, 16]: 34.9 s | Duration (0-5 Minutes) Average [2, 16]: 154.6 s

CC(=O)Cn1c(=O)c2c(ncn2[C@@H](C)C(=O)Nc2ccnc(-c3cnc(N4CC5C(C4)C5(F)F)nc3)n2)n(C)c1=O (stereo partly drawn) [Compound 61, (2S)—N-(2′-(6,6-difluoro-3-azabicyclo[3.1.0]hexan-3-yl)-[2,5′-bipyrimidin]-4-yl)-2-(3-methyl-2,6-dioxo-1-(2-oxopropyl)-2,3-dihydro-1H-purin-7(6H)-yl)propanamide]
IC50 (human TRPA1): 8 nM | Average PWL Post-Treatment [1, 3]: 157.1 | PWL Change [1, 3]: 60.9 s | Average PWL Post-Treatment [1, 5]: 235.4 | PWL Change [1, 5]: 139.4 s | Average PWL Post-Treatment [1, 7]: 278.5 | PWL Change [1, 7]: 182.7 s | Average PWL Post-CFA [1, 9]: 96.2 | Average PWL Post-CFA [1, 10]: 96.0 | Average PWL Post-CFA [1, 11]: 95.8 | Duration (0-2 Minutes) Average [2, 12]: 89.4 s | Duration (0-5 Minutes) Average [2, 12]: 149.3 s | Duration (0-2 Minutes) Average [2, 14]: 90.3 s | Duration (0-5 Minutes) Average [2, 14]: 152.3 s | Duration (0-2 Minutes) Average [2, 16]: 52.8 s | Duration (0-5 Minutes) Average [2, 16]: 120.0 s
